We go through six compounds from patent US12723063B2, “GIPR-agonist compounds” (Eli Lilly and Company, priority 2019, dated 2026).

Molecules are shown by their SMILES. *1 amine or outer side, *2 acyl side, *3 side chain or, on linkers, in order; H or OH if unused. Where a SMILES comes first, the peptide text is derived from it. Side-chain parts run from the residue outwards. [ ]: non-standard residue; d: D form. The star is where a group is joined. C20 diacid = O=C(O)CCCCCCCCCCCCCCCCCCC(=O)*; C18 diacid = O=C(O)CCCCCCCCCCCCCCCCC(=O)*; γGlu = O=C(O)[C@H](CCC(=O)[*:2])N[*:1]; 4Pal = N[C@@H](Cc1ccncc1)C(=O)O; αMeL = CC(C)C[C@](C)(N)C(=O)O; Orn = NCCC[C@H](N)C(=O)O; AEEA = NCCOCCOCC(=O)O; Aib = CC(C)(N)C(=O)O Bounds are passed on as bounds.

Experiment in all cases: cAMP functional assay (HTRF) in HEK293 cells in presence of 0.1% casein
What all share (format): cell-based

Assay [1] has as its target T1, human GLP-1 receptor (GLP-1R) (Homo sapiens, UniProt P43220).
T1 construct: expressed in transfected cells; host or cells: HEK293
The conditions noted are these: HEK293 cells expressing human GLP-1R, geometric mean, read-out: hGLP1R cAMP Rel EC50 nM (SEM, n).

Assay [2] deals with T2, human glucagon receptor (GcgR) (Homo sapiens, UniProt P47871).
T2 construct: expressed in transfected cells; host or cells: HEK293
T2 sequence (P47871 26-477): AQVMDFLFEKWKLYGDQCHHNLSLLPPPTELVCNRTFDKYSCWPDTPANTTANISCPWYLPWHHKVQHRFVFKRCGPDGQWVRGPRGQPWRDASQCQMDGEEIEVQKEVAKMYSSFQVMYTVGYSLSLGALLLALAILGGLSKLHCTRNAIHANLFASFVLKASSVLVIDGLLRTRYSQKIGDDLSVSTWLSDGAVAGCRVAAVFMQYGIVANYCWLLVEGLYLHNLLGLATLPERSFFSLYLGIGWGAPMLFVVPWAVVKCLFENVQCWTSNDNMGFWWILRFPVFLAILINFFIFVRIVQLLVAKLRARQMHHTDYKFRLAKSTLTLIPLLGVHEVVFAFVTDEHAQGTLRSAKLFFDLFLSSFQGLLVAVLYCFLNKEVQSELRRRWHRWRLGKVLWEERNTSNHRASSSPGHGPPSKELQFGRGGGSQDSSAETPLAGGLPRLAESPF
To be noted: HEK293 cells expressing human GcgR, geometric mean, read-out: hGcgR cAMP Rel EC50 nM (SEM, n).

Assay [3] addresses T3, human glucose-dependent insulinotropic peptide receptor (GIPR) (Homo sapiens, UniProt P48546).
T3 construct: expressed in transfected cells; host or cells: HEK293
T3 sequence (P48546 22-466): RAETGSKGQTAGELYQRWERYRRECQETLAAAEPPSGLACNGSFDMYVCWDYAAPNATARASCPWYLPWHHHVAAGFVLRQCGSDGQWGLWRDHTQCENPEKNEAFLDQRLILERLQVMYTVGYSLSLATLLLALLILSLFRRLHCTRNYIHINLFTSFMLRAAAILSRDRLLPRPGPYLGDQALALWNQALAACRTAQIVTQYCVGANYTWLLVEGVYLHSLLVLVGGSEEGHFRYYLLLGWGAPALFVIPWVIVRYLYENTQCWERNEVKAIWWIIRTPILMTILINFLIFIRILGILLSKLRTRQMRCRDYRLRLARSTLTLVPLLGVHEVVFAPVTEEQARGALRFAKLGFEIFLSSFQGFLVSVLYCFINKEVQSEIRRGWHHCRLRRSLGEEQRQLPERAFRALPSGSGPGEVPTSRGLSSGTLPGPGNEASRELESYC
To be noted: HEK293 cells expressing human GIPR, geometric mean, read-out: hGIPR cAMP Rel EC50 nM (SEM, n).

T1 sequence (P43220 24-463): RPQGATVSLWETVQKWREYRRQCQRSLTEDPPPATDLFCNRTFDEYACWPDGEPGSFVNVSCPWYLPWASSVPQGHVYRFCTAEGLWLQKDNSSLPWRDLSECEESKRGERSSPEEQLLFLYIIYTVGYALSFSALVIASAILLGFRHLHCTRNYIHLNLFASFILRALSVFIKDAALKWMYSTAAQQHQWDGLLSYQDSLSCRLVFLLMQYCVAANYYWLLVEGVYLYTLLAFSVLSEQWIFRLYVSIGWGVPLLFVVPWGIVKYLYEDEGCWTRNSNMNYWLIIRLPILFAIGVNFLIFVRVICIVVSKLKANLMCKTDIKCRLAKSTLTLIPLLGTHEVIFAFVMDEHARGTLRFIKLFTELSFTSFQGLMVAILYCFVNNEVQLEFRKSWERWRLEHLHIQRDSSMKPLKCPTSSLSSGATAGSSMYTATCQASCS

`CC[C@H](C)[C@H](NC(=O)[C@H](CCCN)NC(=O)[C@H](CC(=O)O)NC(=O)[C@H](CC(C)C)NC(=O)[C@](C)(CC(C)C)NC(=O)[C@@H](NC(=O)[C@H](CO)NC(=O)[C@H](Cc1ccc(O)cc1)NC(=O)[C@H](CC(=O)O)NC(=O)[C@H](CO)NC(=O)[C@@H](NC(=O)[C@H](Cc1ccccc1)NC(=O)[C@@H](NC(=O)CNC(=O)[C@H](CCC(=O)O)NC(=O)C(C)(C)NC(=O)[C@@H](N)Cc1ccc(O)cc1)[C@@H](C)O)[C@@H](C)CC)[C@@H](C)CC)C(=O)N[C@@H](Cc1c[nH]cn1)C(=O)N[C@@H](CCC(N)=O)C(=O)NC(C)(C)C(=O)N[C@@H](CCC(=O)O)C(=O)N[C@@H](Cc1ccccc1)C(=O)N[C@H](C(=O)N[C@@H](CCC(=O)O)C(=O)N[C@@H](Cc1ccc(O)cc1)C(=O)N[C@@H](CCCCNC(=O)COCCOCCNC(=O)COCCOCCNC(=O)CC[C@H](NC(=O)CCCCCCCCCCCCCCCCCCC(=O)O)C(=O)O)C(=O)N[C@@H](CC(C)C)C(=O)N[C@@H](CCC(=O)O)C(=O)N[C@H](C(=O)NCC(=O)N1CCC[C@H]1C(=O)N[C@@H](CO)C(=O)N[C@@H](CO)C(=O)NCC(=O)N[C@@H](C)C(=O)N1CCC[C@H]1C(=O)N1CCC[C@H]1C(=O)N1CCC[C@H]1C(=O)N[C@@H](CO)C(N)=O)[C@@H](C)O)C(C)C` [Example 105] (H-Y[Aib]EGTFISDYSI[αMeL]LD[Orn]IHQ[Aib]EFVEYK([AEEA-AEEA-γGlu-C20 diacid])LETGPSSGAPPPS-NH2): the EC50 was over 5000 nM in assay [1], over 5000 nM in assay [2] and 0.0179 nM in assay [3].

With `CC[C@H](C)[C@H](NC(=O)[C@H](CCCN)NC(=O)[C@H](CC(=O)O)NC(=O)[C@H](CC(C)C)NC(=O)[C@](C)(CC(C)C)NC(=O)[C@@H](NC(=O)[C@H](CO)NC(=O)[C@H](Cc1ccc(O)cc1)NC(=O)[C@H](CC(=O)O)NC(=O)[C@H](CO)NC(=O)[C@@H](NC(=O)[C@H](Cc1ccccc1)NC(=O)[C@@H](NC(=O)CNC(=O)[C@H](CCC(=O)O)NC(=O)C(C)(C)NC(=O)[C@@H](N)Cc1ccc(O)cc1)[C@@H](C)O)[C@@H](C)CC)[C@@H](C)CC)C(=O)N[C@@H](Cc1c[nH]cn1)C(=O)N[C@@H](CCC(N)=O)C(=O)NC(C)(C)C(=O)N[C@@H](CCC(=O)O)C(=O)N[C@@H](Cc1ccccc1)C(=O)N[C@H](C(=O)N[C@@H](CCC(=O)O)C(=O)N[C@@H](Cc1ccc(O)cc1)C(=O)N[C@@H](CCCCNC(=O)COCCOCCNC(=O)COCCOCCNC(=O)CC[C@H](NC(=O)CCCCCCCCCCCCCCCCCCC(=O)O)C(=O)O)C(=O)N[C@@H](CC(C)C)C(=O)N[C@@H](CCC(=O)O)C(=O)N[C@@H](CCC(N)=O)C(=O)NCC(=O)N1CCC[C@H]1C(=O)N[C@@H](CO)C(=O)N[C@@H](CO)C(=O)NCC(=O)N[C@@H](C)C(=O)N1CCC[C@H]1C(=O)N1CCC[C@H]1C(=O)N1CCC[C@H]1C(=O)N[C@@H](CO)C(N)=O)C(C)C` [Example 106] (H-Y[Aib]EGTFISDYSI[αMeL]LD[Orn]IHQ[Aib]EFVEYK([AEEA-AEEA-γGlu-C20 diacid])LEQGPSSGAPPPS-NH2), the EC50 in assay [1] was over 5000 nM; in assay [2], over 5000 nM; in assay [3] it was 0.014 nM.

On to `CC[C@H](C)[C@H](NC(=O)[C@H](CCCN)NC(=O)[C@H](CC(=O)O)NC(=O)[C@H](CC(C)C)NC(=O)[C@](C)(CC(C)C)NC(=O)[C@@H](NC(=O)[C@H](CO)NC(=O)[C@H](Cc1ccc(O)cc1)NC(=O)[C@H](CC(=O)O)NC(=O)[C@H](CO)NC(=O)[C@@H](NC(=O)[C@H](Cc1ccccc1)NC(=O)[C@@H](NC(=O)CNC(=O)[C@H](CCC(=O)O)NC(=O)C(C)(C)NC(=O)[C@@H](N)Cc1ccc(O)cc1)[C@@H](C)O)[C@@H](C)CC)[C@@H](C)CC)C(=O)N[C@@H](Cc1c[nH]cn1)C(=O)N[C@@H](CCC(N)=O)C(=O)NC(C)(C)C(=O)N[C@@H](CCC(=O)O)C(=O)N[C@@H](Cc1ccccc1)C(=O)N[C@H](C(=O)N[C@@H](CCC(=O)O)C(=O)N[C@@H](Cc1ccc(O)cc1)C(=O)N[C@@H](CCCCNC(=O)COCCOCCNC(=O)COCCOCCNC(=O)CC[C@H](NC(=O)CCCCCCCCCCCCCCCCCCC(=O)O)C(=O)O)C(=O)N[C@@H](CC(C)C)C(=O)N[C@@H](CCC(=O)O)C(=O)NCC(=O)NCC(=O)N1CCC[C@H]1C(=O)N[C@@H](CO)C(=O)N[C@@H](CO)C(=O)NCC(=O)N[C@@H](C)C(=O)N1CCC[C@H]1C(=O)N1CCC[C@H]1C(=O)N1CCC[C@H]1C(=O)N[C@@H](CO)C(N)=O)C(C)C` [Example 107] (H-Y[Aib]EGTFISDYSI[αMeL]LD[Orn]IHQ[Aib]EFVEYK([AEEA-AEEA-γGlu-C20 diacid])LEGGPSSGAPPPS-NH2), for which the EC50 in assay [1] was over 5000 nM; in assay [2], over 5000 nM; in assay [3], 0.0199 nM.

Turning to `CC[C@H](C)[C@H](NC(=O)[C@H](CCCN)NC(=O)[C@H](CC(=O)O)NC(=O)[C@H](CC(C)C)NC(=O)[C@](C)(CC(C)C)NC(=O)[C@@H](NC(=O)[C@H](CO)NC(=O)[C@H](Cc1ccc(O)cc1)NC(=O)[C@H](CC(=O)O)NC(=O)[C@H](CO)NC(=O)[C@@H](NC(=O)[C@H](Cc1ccccc1)NC(=O)[C@@H](NC(=O)CNC(=O)[C@H](CCC(=O)O)NC(=O)C(C)(C)NC(=O)[C@@H](N)Cc1ccc(O)cc1)[C@@H](C)O)[C@@H](C)CC)[C@@H](C)CC)C(=O)N[C@@H](Cc1c[nH]cn1)C(=O)N[C@@H](CCC(N)=O)C(=O)NC(C)(C)C(=O)N[C@@H](CC(=O)O)C(=O)N[C@@H](Cc1ccccc1)C(=O)N[C@H](C(=O)N[C@@H](CCC(=O)O)C(=O)N[C@@H](Cc1ccncc1)C(=O)N[C@@H](CCCCNC(=O)COCCOCCNC(=O)COCCOCCNC(=O)CC[C@H](NC(=O)CCCCCCCCCCCCCCCCCCC(=O)O)C(=O)O)C(=O)N[C@@H](CC(C)C)C(=O)N[C@@H](CCC(=O)O)C(=O)NCC(=O)NCC(=O)N1CCC[C@H]1C(=O)N[C@@H](CO)C(=O)N[C@@H](CO)C(=O)NCC(=O)N[C@@H](C)C(=O)N1CCC[C@H]1C(=O)N1CCC[C@H]1C(=O)N1CCC[C@H]1C(=O)N[C@@H](CO)C(N)=O)C(C)C` [Example 108] (H-Y[Aib]EGTFISDYSI[αMeL]LD[Orn]IHQ[Aib]DFVE[4Pal]K([AEEA-AEEA-γGlu-C20 diacid])LEGGPSSGAPPPS-NH2), the EC50 in assay [1] is over 5000 nM; in assay [2], over 5000 nM; in assay [3], 0.0088 nM.

Turning to `CC[C@H](C)[C@H](NC(=O)[C@H](CCCCN)NC(=O)[C@H](CC(=O)O)NC(=O)[C@H](CC(C)C)NC(=O)[C@](C)(CC(C)C)NC(=O)[C@@H](NC(=O)[C@H](CO)NC(=O)[C@H](Cc1ccc(O)cc1)NC(=O)[C@H](CC(=O)O)NC(=O)[C@H](CO)NC(=O)[C@@H](NC(=O)[C@H](Cc1ccccc1)NC(=O)[C@@H](NC(=O)CNC(=O)[C@H](CCC(=O)O)NC(=O)C(C)(C)NC(=O)[C@@H](N)Cc1ccc(O)cc1)[C@@H](C)O)[C@@H](C)CC)[C@@H](C)CC)C(=O)N[C@@H](Cc1c[nH]cn1)C(=O)N[C@@H](CCC(N)=O)C(=O)NC(C)(C)C(=O)N[C@@H](CC(=O)O)C(=O)N[C@@H](Cc1ccccc1)C(=O)N[C@H](C(=O)N[C@@H](CCC(=O)O)C(=O)N[C@@H](Cc1ccncc1)C(=O)N[C@@H](CCCCNC(=O)COCCOCCNC(=O)COCCOCCNC(=O)CC[C@H](NC(=O)CCCCCCCCCCCCCCCCCCC(=O)O)C(=O)O)C(=O)N[C@@H](CC(C)C)C(=O)N[C@@H](CCC(=O)O)C(=O)NCC(=O)NCC(=O)N1CCC[C@H]1C(=O)N[C@@H](CO)C(=O)N[C@@H](CO)C(=O)NCC(=O)N[C@@H](C)C(=O)N1CCC[C@H]1C(=O)N1CCC[C@H]1C(=O)N1CCC[C@H]1C(=O)N[C@@H](CO)C(N)=O)C(C)C` [Example 109] (H-Y[Aib]EGTFISDYSI[αMeL]LDKIHQ[Aib]DFVE[4Pal]K([AEEA-AEEA-γGlu-C20 diacid])LEGGPSSGAPPPS-NH2), the half-maximal effective concentration (EC50) in assay [1] is over 5000 nM; in assay [2] it was over 5000 nM; in assay [3], 0.0113 nM.

As for `CC[C@H](C)[C@H](NC(=O)[C@H](CCCCN)NC(=O)[C@H](CC(=O)O)NC(=O)[C@H](CC(C)C)NC(=O)[C@](C)(CC(C)C)NC(=O)[C@@H](NC(=O)[C@H](CO)NC(=O)[C@H](Cc1ccc(O)cc1)NC(=O)[C@H](CC(=O)O)NC(=O)[C@H](CO)NC(=O)[C@@H](NC(=O)[C@H](Cc1ccccc1)NC(=O)[C@@H](NC(=O)CNC(=O)[C@H](CCC(=O)O)NC(=O)C(C)(C)NC(=O)[C@@H](N)Cc1ccc(O)cc1)[C@@H](C)O)[C@@H](C)CC)[C@@H](C)CC)C(=O)N[C@@H](Cc1c[nH]cn1)C(=O)N[C@@H](CCC(N)=O)C(=O)NC(C)(C)C(=O)N[C@@H](CC(=O)O)C(=O)N[C@@H](Cc1ccccc1)C(=O)N[C@H](C(=O)N[C@@H](CCC(=O)O)C(=O)N[C@@H](Cc1ccncc1)C(=O)N[C@@H](CCCCNC(=O)COCCOCCNC(=O)COCCOCCNC(=O)CC[C@H](NC(=O)CCCCCCCCCCCCCCCCC(=O)O)C(=O)O)C(=O)N[C@@H](CC(C)C)C(=O)N[C@@H](CCC(=O)O)C(=O)NCC(=O)NCC(=O)N1CCC[C@H]1C(=O)N[C@@H](CO)C(=O)N[C@@H](CO)C(=O)NCC(=O)N[C@@H](C)C(=O)N1CCC[C@H]1C(=O)N1CCC[C@H]1C(=O)N1CCC[C@H]1C(=O)N[C@@H](CO)C(N)=O)C(C)C` [Example 110] (H-Y[Aib]EGTFISDYSI[αMeL]LDKIHQ[Aib]DFVE[4Pal]K([AEEA-AEEA-γGlu-C18 diacid])LEGGPSSGAPPPS-NH2), the EC50 in assay [1] is over 5000 nM; in assay [2], over 5000 nM; in assay [3], 0.0071 nM.
